Data from publication PMC8389922, “First-in-Class Cyclic Temporin L Analogue: Design, Synthesis, and Antimicrobial Assessment” (Journal of Medicinal Chemistry, 2021).
In brackets after ≈: the same amount, converted by molar mass. Bridge positions count the residues as written; N and C are the ends. Square brackets hold non-standard residues; d marks the D form. Triazole bridges read from a SMILES are 1,4-linked. Peptide text beside a SMILES is read from it. dLys(N3) = [N-]=[N+]=NCCCC[C@@H](N)C(=O)O; Lys(N3) = [N-]=[N+]=NCCCC[C@H](N)C(=O)O; dPra = C#CC[C@@H](N)C(=O)O; Pra = C#CC[C@H](N)C(=O)O

Experiments:
circular dichroism = settings: water; pH ns; 25 °C; 50 uM
A. baumannii ATCC 19606 = format: cell-based, Acinetobacter baumannii
Method: (§1) The antimicrobial activity of peptides 9–26 was assessed against a range of reference bacterial strains such as S. aureus ATCC 25923, Staphylococcus epidermidis ATCC 12228, Bacillus megaterium Bm11, E. coli ATCC 25922, P. aeruginosa ATCC 27853, and A. baumannii ATCC 19606 by the broth microdilution assay to determine the minimal growth inhibitory concentration (MIC, Table 1).[59] First, we evaluated the effects produced by the lactam bridge between Lys and Glu residues placed at different positions along the peptide sequence of reference 9. […] When the i,i+7 cyclization strategy was applied (20–23), a dramatic decrease of bacterial inhibition activity was observed. Specifically, the peptides 20, 22, and 23 only affected the microbial growth of the Gram-positive B. megaterium Bm11, at 12.5 μM. […] Peptide 25, which differs from 9 by the presence of an olefin bridge rather than lactam one, dramatically lost the activity (MIC > 100 μM) vs both Gram-positive and Gram-negative strains.
(§2) The determination of MICs was conducted as previously reported.[61] Aliquots of 50 μL of bacterial culture appropriately diluted were added to each well of a 96-well plate to reach a final cell density of 1 × 10^6 CFU/mL and a final peptide concentration ranging from 100 to 0.78 μM (final volume 100 μL).

P. aeruginosa ATCC 27853 = format: cell-based, Pseudomonas aeruginosa
Method: as §1, §2

B. megaterium Bm11 = format: cell-based, Bacillus megaterium
Method: as §1, §2

[1] = system: S. epidermidis ATCC 12228; format: cell-based, Staphylococcus epidermidis
Method: as §1, §2

S. aureus ATCC 25923 = format: cell-based, Staphylococcus aureus
Method: as §1, §2

E. coli ATCC 25922 = format: cell-based, Escherichia coli
Method: as §1, §2

Structure (SMILES) | helicity (circular dichroism) [%] | MIC A. baumannii ATCC 19606 (A. baumannii ATCC 19606) [µM] | MIC P. aeruginosa ATCC 27853 (P. aeruginosa ATCC 27853) [µM] | MIC B. megaterium Bm11 (B. megaterium Bm11) [µM] | MIC S. epidermidis ATCC 12228 [1] [µM] | MIC S. aureus ATCC 25923 (S. aureus ATCC 25923) [µM] | MIC E. coli ATCC 25922 (E. coli ATCC 25922) [µM]
CC[C@H](C)[C@H](NC(=O)[C@H](CCCNC(=N)N)NC(=O)[C@@H]1CCCCn2cc(nn2)C[C@H](NC(=O)[C@H](Cc2ccccc2)NC(=O)[C@H](Cc2c[nH]c3ccccc23)NC(=O)[C@@H]2CCCN2C(=O)[C@@H](NC(=O)[C@@H](N)Cc2ccccc2)C(C)C)C(=O)N[C@@H](CCCCN)C(=O)N[C@@H](Cc2ccccc2)C(=O)N[C@H](CC(C)C)C(=O)N1)C(=O)N[C@@H](CC(C)C)C(N)=O | 6 |  |  |  |  |  | 
CC[C@H](C)[C@@H]1NC(=O)[C@H](CCCNC(=N)N)NC(=O)CNC(=O)[C@H](NC(=O)[C@H](Cc2ccccc2)NC(=O)[C@H](CCCCN)NC(=O)[C@H](CO)NC(=O)[C@H](Cc2ccccc2)NC(=O)[C@H](Cc2c[nH]c3ccccc23)NC(=O)[C@@H]2CCCN2C(=O)[C@@H](NC(=O)[C@@H](N)Cc2ccccc2)C(C)C)CCCCNC(=O)CC[C@@H](C(N)=O)NC1=O [compound 10] |  | >100 | >100 | 50 (≈ 81.1 µg/mL) | >100 | >100 | >100
CC(C)C[C@H](NC(=O)[C@@H]1CCC(=O)NCCCC[C@H](NC(=O)[C@H](CCCCN)NC(=O)[C@H](CO)NC(=O)[C@H](Cc2ccccc2)NC(=O)[C@H](Cc2c[nH]c3ccccc23)NC(=O)[C@@H]2CCCN2C(=O)[C@@H](NC(=O)[C@@H](N)Cc2ccccc2)C(C)C)C(=O)N[C@H](CC(C)C)C(=O)NCC(=O)N[C@@H](CCCNC(=N)N)C(=O)N1)C(N)=O [compound 11] (H-FVPWFSKK[dL]GREL-NH2; lactam 8-12) |  | >100 | >100 | 50 (≈ 79.4 µg/mL) | >100 | >100 | >100
CC[C@H](C)[C@H](NC(=O)[C@H](CCCNC(=N)N)NC(=O)CNC(=O)[C@H]1CCC(=O)NCCCC[C@H](NC(=O)[C@H](Cc2c[nH]c3ccccc23)NC(=O)[C@@H]2CCCN2C(=O)[C@@H](NC(=O)[C@@H](N)Cc2ccccc2)C(C)C)C(=O)N[C@@H](CO)C(=O)N[C@@H](CCCCN)C(=O)N[C@@H](Cc2ccccc2)C(=O)N1)C(=O)N[C@@H](CC(C)C)C(N)=O [compound 13] (H-FVPWKSKF[dE]GRIL-NH2; lactam 5-9) |  | >100 | >100 | 100 (≈ 159 µg/mL) | >100 | >100 | >100
CC[C@H](C)[C@H](NC(=O)[C@H](CCCNC(=N)N)NC(=O)CNC(=O)[C@@H](CC(C)C)NC(=O)[C@@H]1CCC(=O)NCCCC[C@H](NC(=O)[C@@H]2CCCN2C(=O)[C@@H](NC(=O)[C@@H](N)Cc2ccccc2)C(C)C)C(=O)N[C@@H](Cc2ccccc2)C(=O)N[C@@H](CO)C(=O)N[C@@H](CCCCN)C(=O)N1)C(=O)N[C@@H](CC(C)C)C(N)=O [compound 14] (H-FVPKFSKE[dL]GRIL-NH2; lactam 4-8) |  | >100 | >100 | >100 | >100 | >100 | >100
CC[C@H](C)[C@@H]1NC(=O)[C@H](CCCNC(=N)N)NC(=O)CNC(=O)[C@H](NC(=O)[C@H](Cc2ccccc2)NC(=O)[C@H](CCCCN)NC(=O)[C@H](CO)NC(=O)[C@H](Cc2ccccc2)NC(=O)[C@H](Cc2c[nH]c3ccccc23)NC(=O)[C@@H]2CCCN2C(=O)[C@@H](NC(=O)[C@@H](N)Cc2ccccc2)C(C)C)Cc2cn(nn2)CCCC[C@@H](C(N)=O)NC1=O [compound 15] (H-FVPWFSKF[dPra]GRI[Lys(N3)]-NH2; triazole 9-13) |  | 100 (≈ 163 µg/mL) | >100 | 25 (≈ 40.8 µg/mL) | >100 | >100 | >100
CC(C)C[C@H](NC(=O)[C@@H]1CCCCn2cc(nn2)C[C@H](NC(=O)[C@H](CCCCN)NC(=O)[C@H](CO)NC(=O)[C@H](Cc2ccccc2)NC(=O)[C@H](Cc2c[nH]c3ccccc23)NC(=O)[C@@H]2CCCN2C(=O)[C@@H](NC(=O)[C@@H](N)Cc2ccccc2)C(C)C)C(=O)N[C@H](CC(C)C)C(=O)NCC(=O)N[C@@H](CCCNC(=N)N)C(=O)N1)C(N)=O [compound 16] (H-FVPWFSK[Pra][dL]GR[Lys(N3)]L-NH2; triazole 8-12) |  | 25 (≈ 39.9 µg/mL) | >100 | 25 (≈ 39.9 µg/mL) | >100 | >100 | 50 (≈ 79.9 µg/mL)
CC[C@H](C)[C@H](NC(=O)[C@H](CCCNC(=N)N)NC(=O)CNC(=O)[C@H]1CCCCn2cc(nn2)C[C@H](NC(=O)[C@H](Cc2c[nH]c3ccccc23)NC(=O)[C@@H]2CCCN2C(=O)[C@@H](NC(=O)[C@@H](N)Cc2ccccc2)C(C)C)C(=O)N[C@@H](CO)C(=O)N[C@@H](CCCCN)C(=O)N[C@@H](Cc2ccccc2)C(=O)N1)C(=O)N[C@@H](CC(C)C)C(N)=O [compound 18] (H-FVPW[Pra]SKF[dLys(N3)]GRIL-NH2; triazole 5-9) |  | 100 (≈ 160 µg/mL) | >100 | 6.25 (≈ 9.99 µg/mL) | >100 | >100 | 100 (≈ 160 µg/mL)
CC[C@H](C)[C@H](NC(=O)[C@H](CCCNC(=N)N)NC(=O)CNC(=O)[C@@H](CC(C)C)NC(=O)[C@@H]1CCCCn2cc(nn2)C[C@H](NC(=O)[C@@H]2CCCN2C(=O)[C@@H](NC(=O)[C@@H](N)Cc2ccccc2)C(C)C)C(=O)N[C@@H](Cc2ccccc2)C(=O)N[C@@H](CO)C(=O)N[C@@H](CCCCN)C(=O)N1)C(=O)N[C@@H](CC(C)C)C(N)=O [compound 19] (H-FVP[Pra]FSK[Lys(N3)][dL]GRIL-NH2; triazole 4-8) |  | >100 | >100 | 12.5 (≈ 19.1 µg/mL) | >100 | >100 | >100
CC[C@H](C)[C@@H]1NC(=O)[C@H](CCCNC(=N)N)NC(=O)CNC(=O)[C@@H](CC(C)C)NC(=O)[C@H](Cc2ccccc2)NC(=O)[C@H](CCCCN)NC(=O)[C@@H](NC(=O)[C@H](Cc2ccccc2)NC(=O)[C@H](Cc2c[nH]c3ccccc23)NC(=O)[C@@H]2CCCN2C(=O)[C@@H](NC(=O)[C@@H](N)Cc2ccccc2)C(C)C)CCCCNC(=O)CC[C@@H](C(N)=O)NC1=O [compound 20] (H-FVPWFKKF[dL]GRIE-NH2; lactam 6-13) |  | >100 | >100 | 12.5 (≈ 20.6 µg/mL) | >100 | >100 | >100
CC(C)C[C@H](NC(=O)[C@@H]1CCC(=O)NCCCC[C@H](NC(=O)[C@H](Cc2c[nH]c3ccccc23)NC(=O)[C@@H]2CCCN2C(=O)[C@@H](NC(=O)[C@@H](N)Cc2ccccc2)C(C)C)C(=O)N[C@@H](CO)C(=O)N[C@@H](CCCCN)C(=O)N[C@@H](Cc2ccccc2)C(=O)N[C@H](CC(C)C)C(=O)NCC(=O)N[C@@H](CCCNC(=N)N)C(=O)N1)C(N)=O [compound 21] (H-FVPWKSKF[dL]GREL-NH2; lactam 5-12) |  | >100 | >100 | 100 (≈ 159 µg/mL) | >100 | >100 | >100
CC[C@H](C)[C@@H]1NC(=O)[C@H](CCCNC(=N)N)NC(=O)CNC(=O)[C@@H](CC(C)C)NC(=O)[C@H](Cc2ccccc2)NC(=O)[C@H](CCCCN)NC(=O)[C@@H](NC(=O)[C@H](Cc2ccccc2)NC(=O)[C@H](Cc2c[nH]c3ccccc23)NC(=O)[C@@H]2CCCN2C(=O)[C@@H](NC(=O)[C@@H](N)Cc2ccccc2)C(C)C)Cc2cn(nn2)CCCC[C@@H](C(N)=O)NC1=O [compound 22] (H-FVPWF[Pra]KF[dL]GRI[Lys(N3)]-NH2; triazole 6-13) |  | 100 (≈ 166 µg/mL) | >100 | 12.5 (≈ 20.7 µg/mL) | >100 | >100 | >100
CC[C@H](C)[C@H](NC(=O)[C@H](CCCNC(=N)N)NC(=O)[C@@H]1CSSC[C@H](NC(=O)[C@H](Cc2ccccc2)NC(=O)[C@H](Cc2c[nH]c3ccccc23)NC(=O)[C@@H]2CCCN2C(=O)[C@@H](NC(=O)[C@@H](N)Cc2ccccc2)C(C)C)C(=O)N[C@@H](CCCCN)C(=O)N[C@@H](Cc2ccccc2)C(=O)N[C@H](CC(C)C)C(=O)N1)C(=O)N[C@@H](CC(C)C)C(N)=O [compound 26] (H-FVPWFCKF[dL]CRIL-NH2; disulfide 6-10) | 8 | 25 (≈ 41.7 µg/mL) | >100 | 1.56 (≈ 2.6 µg/mL) | 6.25 (≈ 10.4 µg/mL) | 100 (≈ 167 µg/mL) | 25 (≈ 41.7 µg/mL)
